Experimental data published in patent US20150148311A1, “NON-SYSTEMIC TGR5 AGONISTS” (Ardelyx, Inc., priority 2011, published 2015).

Legend:
[1] = Compound plasma concentration, LC-MS/MS, 8 h post dose; type: in vivo; conditions: male, C57BL/6, mouse, mice, 30 mg/kg, plasma, read-out: Mean Example Plasma Concentration
Procedure: Eight hours later, each mouse was heavily anesthetized with isoflurane, the peritoneal cavity was opened and the gallbladder, with its entire contents, was carefully excised and weighed. Blood was collected from the left ventricle of the heart and processed to plasma in EDTA-coated tubes containing aprotinin and DPPIV inhibitor for measurement of total GLP-1 (K150FCC; Meso Scales Discovery, Gaithersburg Md.).
Plasma samples were treated with acetonitrile containing an internal standard, precipitated proteins removed by centrifugation. Supernatants were analyzed by LC-MS/MS and compound concentrations were determined by interpolated from a standard curve prepared in plasma.

human TGR5 = molecular target: T1, human TGR5 (Homo sapiens, UniProt Q8TDU6); experiment: Cell-based TGR5 assay, HEK293 cells stably expressing human TGR5, cAMP by HTRF; conditions: HEK293 cells stably expressing human TGR5, 30 min at 37 C, 0.05 nM to 10 μM, read-out: pEC50 Human TGR5 (converted)
T1 construct: expressed in transfected cells
T1 sequence (Q8TDU6 1-330): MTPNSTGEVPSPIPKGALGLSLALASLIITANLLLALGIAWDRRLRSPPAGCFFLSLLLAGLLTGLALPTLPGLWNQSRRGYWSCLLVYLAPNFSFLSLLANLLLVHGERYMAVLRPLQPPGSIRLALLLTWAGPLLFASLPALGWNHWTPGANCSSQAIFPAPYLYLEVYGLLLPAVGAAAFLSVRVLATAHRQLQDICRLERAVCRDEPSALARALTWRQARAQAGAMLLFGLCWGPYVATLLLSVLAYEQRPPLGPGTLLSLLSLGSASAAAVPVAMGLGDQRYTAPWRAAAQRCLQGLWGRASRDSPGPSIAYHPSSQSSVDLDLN
Outline: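 cAMP HTRF read-out, converted to concentration via standard curve, after a 30 min, 37 °C compound exposure in HBSS with 10 mM HEPES pH 7.4 and 0.5 mM IBMX, compounds serially diluted 3-fold from 10 mM DMSO stock then 100-fold. Cells: stable human TGR5 HEK293, or NCI-H716 expressing TGR5 endogenously.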

[2] = molecular target: T2, endogenously expressed TGR5 in NCI H716 (Homo sapiens, UniProt Q8TDU6); experiment: Cell-based TGR5 assay, NCI-H716 cells endogenously expressing human TGR5, cAMP by HTRF; conditions: 30 min at 37 C, 22 nM to 50 μM, read-out: pEC50 endogenously expressed TGR5 in NCI H716 (converted)
T2 construct: human caecum carcinoma cell line NCI-H716 which endogenously expresses human TGR5; endogenous in cells; host or cells: NCI-H716
T2 sequence (Q8TDU6 1-330): T1 sequence (Q8TDU6 1-330)
Procedure: Two primary cell based screens were performed. The first utilized HEK293 cells stably transfected to heterologously express human TGR5. The second screen used the human caecum carcinoma cell line NCI-H716 which endogenously expresses human TGR5. In both assays, cells are treated with candidate TGR5 activators and assessed for the increased intercellular levels of cAMP. […]
TGR5-mediated cAMP generation was measured using a homogeneous time resolved fluorescence (HTRF) detection method (Cisbio). Test compounds were dissolved in DMSO to a final concentration of 10 mM. Serial 3-fold dilutions of the stock solution were made in DMSO, and these solutions were diluted 100-fold into Hanks Balanced Salt Solution supplemented with 10 mM HEPES pH 7.4 and 0.5 mM isobutyl methylxanthine (IBMX). Prior to assay, culture medium was replaced with fresh medium, and test compounds diluted in HBSS/HEPES/IBMX were added to the cells and incubated at 37° C. for 30 minutes.
Following incubation with test compounds, cAMP was detected through the successive addition of cAMP labeled with the modified allophyocyanin dye d2 (cAMP-d2) and cryptate-labeled anti-cAMP in lysis buffer, and reading HTRF per the manufacturer's instructions. A standard curve was used to convert the raw HTRF data into [cAMP].

Row | Compound | concentration at 8 h [1] | EC50 (human TGR5) | EC50 [2]
1 | O=C(O)CN(CCCCCc1cc(Cl)c(CN2CSC[C@H]2C(=O)N2CCN(C3CC3)c3ccccc32)cc1Cl)CC(=O)O [Example 276] | 7.6 ng/mL | – | –
2 | O=C(N1CCN(C2CC2)c2ccccc21)C1(OCc2cc(Cl)ccc2C(F)(F)F)CC1 [Example 42, (1-(5-chloro-2-(trifluoromethyl)benzyloxy)cyclopropyl)(4-cyclopropyl-3,4-dihydroquinoxalin-1(2H)-yl)methanone] | – | 126 to 1000 nM | 126 to 1000 nM
3 | O=C(N1CCN(C2CC2)c2ccccc21)C1(OCc2cc(Cl)ccc2Cl)CCCCC1 [Example 242] | – | 126 to 1000 nM | > 50100 nM
4 | CN(C(=O)C1(OCc2cc(Cl)ccc2Cl)CC1)c1ccccc1OC1CCC1 [Example 72, N-(2-cyclobutoxyphenyl)-1-(2,5-dichlorobenzyloxy)-N-methylcyclopropanecarboxamide] | – | < 100 nM | < 100 nM
5 | CN(C[C@H](O)[C@@H](O)[C@H](O)[C@H](O)CO)C(=O)NCCCc1ccc(Cl)c(CNC2(C(=O)N3CCN(C4CC4)c4ccccc43)CC2)c1 [Example 69, 3-(3-(4-chloro-3-(((1-(4-cyclopropyl-1,2,3,4-tetrahydroquinoxaline-1-carbonyl)cyclopropyl)amino)methyl)phenyl)propyl)-1-methyl-1-((2S,3R,4R,5R)-2,3,4,5,6-pentahydroxyhexyl)urea] | – | 1260 to 50100 nM | 1260 to 50100 nM
6 | O=C([C@@H]1CCCN1Cc1cc(Cl)ccc1C(F)(F)F)N1CCN(C2CC2)c2ccccc21 [Example 46, (S)-(1-(5-chloro-2-(trifluoromethyl)benzyl)pyrrolidin-2-yl)(4-cyclopropyl-3,4-dihydroquinoxaline-1(2H)-yl)methanone] | – | < 100 nM | 126 to 1000 nM
7 | O=C(O)CCc1ccc(Cl)c(CNC2(C(=O)N3CCN(C4CC4)c4ccccc43)CC2)c1 [Example 59, 3-(4-chloro-3-(((1-(4-cyclopropyl-1,2,3,4-tetrahydroquinoxaline-1-carbonyl)cyclopropyl)amino)methyl)phenyl)propanoic acid] | – | 126 to 1000 nM | 1260 to 50100 nM
8 | CC(NCc1cc(Cl)ccc1Cl)C(=O)N1CCN(C2CC2)c2ccccc21 (stereo not shown) [Example 7, 1-(4-cyclopropyl-3,4-dihydroquinoxalin-1(2H)-yl)-2-(2,5-dichlorobenzylamino)propan-1-one] | – | 126 to 1000 nM | 1260 to 50100 nM
9 | CN1CC(OCc2cc(Cl)ccc2Cl)(C(=O)N2CCN(C3CC3)c3ccccc32)C1 [Example 51, (4-cyclopropyl-3,4-dihydroquinoxalin-1(2H)-yl)(3-(2,5-dichlorobenzyloxy)-1-methylazetidin-3-yl)methanone] | – | 126 to 1000 nM | 1260 to 50100 nM
10 | CN(C[C@H](O)[C@@H](O)[C@H](O)[C@H](O)CO)C(=O)NCCCc1ccc(Cl)c(CN2CSC[C@H]2C(=O)N2CCN(C3CC3)c3ccccc32)c1 [Example 217] | – | 126 to 1000 nM | 1260 to 50100 nM
11 | O=C(N1CCN(C2CC2)c2ccccc21)C1(OCc2cc(Cl)ccc2Cl)CCOCC1 [Example 79, 1-cyclopropyl-4-([4-[(2,5-dichlorophenyl)methoxy]oxan-4-yl]carbonyl)-1,2,3,4-tetrahydroquinoxaline] | – | 126 to 1000 nM | 1260 to 50100 nM
12 | Cc1ccc(Cl)c(COC2(C(=O)N3CCN(C4CC4)c4ccccc43)CC2)c1F [Example 249] | – | 1260 to 50100 nM | 1260 to 50100 nM
13 | Cc1ccc(Cl)c(CN2CCC[C@H]2C(=O)N2CCN(C3CC3)c3ccccc32)c1F [Example 245] | – | 1260 to 50100 nM | 1260 to 50100 nM
14 | O=C(N1CCCc2ncccc21)C1(OCc2cc(Cl)ccc2Cl)CC1 [Example 86, 1-([1-[(2,5-dichlorophenyl)methoxy]cyclopropyl]carbonyl)-1,2,3,4-tetrahydro-1,5-naphthyridine] | – | > 10000 nM | > 50100 nM
15 | O=C(N1CCN(C2CC2)c2ccccc21)C1(OCc2cc(Cl)ccc2Cl)COC1 [Example 179, (4-cyclopropyl-3,4-dihydroquinoxalin-1(2H)-yl)(3-(2,5-dichlorobenzyloxyl)oxetan-3-yl)methanone] | – | < 100 nM | 126 to 1000 nM
16 | O=C(N1CCN(C2CC2)c2ccccc21)C1(OCc2cc(Cl)cc(OC(F)(F)F)c2)CC1 [Example 248] | – | 1260 to 50100 nM | 1260 to 50100 nM
17 | CC(C)N1CC(OCc2cc(Cl)ccc2Cl)(C(=O)N2CCN(C3CC3)c3ccccc32)C1 [Example 53, (4-cyclopropyl-3,4-dihydroquinoxalin-1(2H)-yl)(3-(2,5-dichlorobenzyloxy)-1-isopropylazetidin-3-yl)methanone] | – | 1260 to 50100 nM | 1260 to 50100 nM
18 | O=C(N1CCN(C2CC2)c2ccccc21)C1(NCc2cc(C(F)(F)F)ccc2Cl)CC1 [Example 255] | – | < 100 nM | < 100 nM
19 | O=C([C@@H]1CCCN1Cc1c(Cl)cccc1Cl)N1CCN(C2CC2)c2ccccc21 [Example 47, (S)(4-cyclopropyl-3,4-dihydroquinoxaline-1(2H)-yl)(1-(2,6-dichlorobenzyl)pyrrolidin-2-yl) methanone] | – | > 10000 nM | 1260 to 50100 nM
20 | O=C(N1CCN(C2CC2)c2ccccc21)C1(OCc2cc(Cl)ccc2Cl)CCC1 [Example 41, 1-cyclopropyl-4-([1-[(2,5-dichlorophenyl)methoxy]cyclobutyl]carbonyl)-1,2,3,4-tetrahydroquinoxaline] | – | < 100 nM | 126 to 1000 nM
21 | CN(C[C@H](O)[C@@H](O)[C@H](O)[C@H](O)CO)C(=O)NCCOc1cc(Cl)c(CN2CSC[C@H]2C(=O)N2CCN(C3CC3)c3ccccc32)cc1Cl [Example 184] | – | 126 to 1000 nM | 126 to 1000 nM
22 | CN(C[C@H](O)[C@@H](O)[C@H](O)[C@H](O)CO)C(=O)NCCCc1cc(Cl)c(CNC2(C(=O)N3CCN(C4CC4)c4ccccc43)CC2)cc1Cl [Example 93, 3-(3-(2,5-dichloro-4-((1-(4-cyclopropyl-1,2,3,4-tetrahydroquinoxaline-1-carbonyl)cyclopropylamino)methyl)phenyl)propyl)-1-methyl-1-((2S,3R,4R,5R)-2,3,4,5,6-pentahydroxyhexyl)urea] | – | 126 to 1000 nM | 126 to 1000 nM
23 | CC(C(=O)N1CCN(C2CC2)c2ccccc21)N(C)Cc1cc(Cl)ccc1Cl (stereo not shown) [Example 243] | – | 126 to 1000 nM | 1260 to 50100 nM
24 | O=C(N1CCN(C2CC2)c2ccccc21)C1(NCc2cc(Cl)ccc2C(F)(F)F)CC1 [Example 254] | – | < 100 nM | < 100 nM
25 | CN(C[C@H](O)[C@@H](O)[C@H](O)[C@H](O)CO)C(=O)NCCCCc1ccc(Cl)c(CNC2(C(=O)N3CCN(C4CC4)c4ccccc43)CC2)c1 [Example 213] | – | 126 to 1000 nM | 1260 to 50100 nM
